Source: patent publication US20050074765A1, “Methods for identifying and using modulators of estrogen related receptor gamma” (priority 2002, published 2005)

What was measured:
ERRγ = target: T1, ERRγ (Homo sapiens, UniProt P62508); assay: ERRγ direct binding assay ([3H]-tamoxifen competition, SPA); conditions: found using FRET assay and direct binding assay in conjunction with the homology model
T1 construct: made in house; host or cells: E. coli BL21(DE3), pRSETa vector
T1 sequence (P62508 with tags, fused parts or gaps): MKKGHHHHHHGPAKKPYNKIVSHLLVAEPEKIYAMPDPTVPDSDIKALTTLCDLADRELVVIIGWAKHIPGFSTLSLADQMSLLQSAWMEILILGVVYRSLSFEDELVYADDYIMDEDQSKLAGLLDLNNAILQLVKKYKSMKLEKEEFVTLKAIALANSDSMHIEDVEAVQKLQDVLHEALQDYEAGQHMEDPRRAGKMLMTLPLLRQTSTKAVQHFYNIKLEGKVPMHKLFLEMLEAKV
Description: The binding assay was developed with a different set of parameters than that of the LiSA assay. No common set of assay conditions is applicable to all nuclear receptors. Accordingly, parameters to be optimized included pH, detergents, carriers, and bead concentrations. By […] several variables at one time, a large number of conditions can be examined through the statistical capabilities of a program called JMP (SAS Institute, Cary N.C.). Multiple variables including, but not limited to, buffer, detergents, and carrier, were entered simultaneously Lnto the program with the goal being to increase specific counts while lowering non-specific counts.
The same ERRγ protein as set forth in Example 4 was used to develop the binding assay. The buffer for this system was prepared with 50 mM MOPS (pH 7), 50 mM KCl, and 1 mM EDTA, in 1 L of deionized water. This buffer was then filtered with the Corning (431205) filter system with a 0.22 μm cellulose Acetate filter. After filtering, 0.01% Tween20 was added. Before using the buffer in the assay, 10 mM DTT was added to the appropriate amount of buffer. Approximately 0.125 mg/ml SA-SPA beads (Wallac) were coated with 20 nM biotinylated ERRγ. […] These plates were then read on the Wallac Trilux scintillation counter.

ERRγ:RIP140 complex = target: T2, ERRγ:RIP140 complex (Homo sapiens, UniProt P62508); assay: ERRγ:RIP140 FRET ligand sensing assay (LiSA); assay type: biochemical; conditions: ERRγ LBD and RIP140 peptide, one to one ratio
T2 construct: made in house; host or cells: E. coli BL21(DE3), pRSETa vector; RIP140 peptide synthesised by SynPep
T2 sequence (P62508 with tags, fused parts or gaps): T1 sequence (P62508 with tags, fused parts or gaps)
Experimental: Before using the buffer in the assay, 10 mM DTT was added to the appropriate amount of buffer.

| ligand for ERRγ (ERRγ) | dissociation of the receptor:cofactor interaction (ERRγ:RIP140 complex) | Molecule |
| --- | --- | --- |
| ligands for ERPγ |  | CC/C(=C(/c1ccc(OCCN(C)C)cc1)c1cccc(O)c1)c1ccccc1 [3-hydroxytamoxifen] |
| ligands for ERPγ | caused this dissociation | 4-hydroxytamoxifen |
